One data set deals with T1, α-amylase (Sus scrofa, UniProt P00690).
T1 sequence (P00690 16-511): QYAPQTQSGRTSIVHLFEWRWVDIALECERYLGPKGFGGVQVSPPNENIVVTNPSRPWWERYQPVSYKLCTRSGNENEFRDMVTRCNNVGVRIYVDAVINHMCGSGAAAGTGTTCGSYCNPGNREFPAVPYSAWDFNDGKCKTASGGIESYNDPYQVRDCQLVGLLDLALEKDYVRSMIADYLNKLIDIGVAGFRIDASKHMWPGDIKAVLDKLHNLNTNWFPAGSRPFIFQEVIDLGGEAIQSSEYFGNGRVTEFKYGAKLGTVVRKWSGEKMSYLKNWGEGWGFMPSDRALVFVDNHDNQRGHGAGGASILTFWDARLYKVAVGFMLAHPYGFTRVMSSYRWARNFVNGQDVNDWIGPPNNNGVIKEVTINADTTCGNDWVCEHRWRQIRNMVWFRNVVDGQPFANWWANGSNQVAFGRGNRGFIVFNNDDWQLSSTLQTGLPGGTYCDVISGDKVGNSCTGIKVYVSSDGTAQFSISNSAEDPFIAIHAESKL
In words: α-Amylase inhibitory activity assay (Gal-G2-α-CNP substrate). Type of data set: biochemical. The following applies: 37 °C, pH 6.8. As to the method: The inhibitory activity detection process was slightly modified, with reference as the base method from the literature. […] After thorough mixing, the samples were pre-incubated at 37 °C for 10 min. Subsequently, 100 μL of 5 mmol/L Gal-G2-α-CNP substrate was added to each sample. Following a 3 min reaction period, the absorbance of the solutions at 405 nm was measured using a microplate reader. The inhibition rate (%) was calculated based on the absorbance readings according to Formula (1).(1) inhibition rate%=(1−(A1−A2)/(A3−A4))×100
In the formula, A1 represents the sample group; A2 represents the sample control group (where the enzyme was replaced with phosphate buffer); A3 represents the blank control group; and A4 represents the reagent blank control group (containing blank sample solution and phosphate buffer).
Using the enzyme inhibition rate as the y-axis and the inhibitor concentration as the x-axis, the IC50 value was calculated through linear regression fitting with GraphPad Prism software (5.0).

A further data set is described as follows: MTT cytotoxicity assay. Type of data set: cell-based, human. To be noted: human, HepG2 cells; for viability at 24 h: read-out: cell viability. How it is done:
The cytotoxicity of six porphyrin compounds against human hepatocellular carcinoma HepG2 cells was evaluated using the MTT assay. HepG2 cells were seeded into 96-well plates at a density of 5000 cells per well and cultured for 24 h at 37 °C in a 5% CO2 incubator. Then, 100 µL of sample solutions at various concentrations (50, 100, and 200 µg/mL) was added to the experimental wells, with blank control wells and solvent control wells also included. The cells were further incubated for 24 h. After incubation, 10 µL of MTT solution (5 mg/mL) was added to each well, and the plates were incubated for another 4 h. Subsequently, 100 µL of Formazan solubilization solution was added to each well, followed by gentle mixing. The plates were returned to the incubator and maintained until complete dissolution of Formazan crystals was observed under a microscope. The absorbance at 570 nm was measured using a microplate reader (Meigu Molecular Instrument Company, Shanghai, China), and the survival rate of HepG2 cells was calculated.(12) Cell viability=As-Ab/Ac-Ab×100%
In the formula, As represents the absorbance of the sample well, Ac denotes the absorbance of the blank control well (without the drug), and Ab refers to the absorbance of the solvent control well (devoid of both cells and the drug).

Read-outs that look alike come from different tables or passages of the source.

As to `O=C(O)c1ccc(-c2c3nc(c(-c4ccc(C(=O)O)cc4)c4ccc([nH]4)c(-c4ccc(C(=O)O)cc4)c4nc(c(-c5ccc(C(=O)O)cc5)c5ccc2[nH]5)C=C4)C=C3)cc1.[Cu+2]` [Cu–TCPP, copper (II) meso-tetra (4-carboxyphenyl)porphyrin], at α-amylase, the “IC50 α-amylase” value amounted to 245.04 ± 0.26 µg/mL. Regarding `O=C(O)c1ccc(-c2c3nc(c(-c4ccc(C(=O)O)cc4)c4ccc([nH]4)c(-c4ccc(C(=O)O)cc4)c4nc(c(-c5ccc(C(=O)O)cc5)c5ccc2[nH]5)C=C4)C=C3)cc1.[Ni+2]` [Ni–TCPP, nickel (II) meso-tetra (4-carboxyphenyl) porphine], the “IC50 α-amylase” value at α-amylase was 156.26 ± 0.48 µg/mL.

As to `Nc1ccc(-c2c3nc(c(-c4ccc(N)cc4)c4ccc([nH]4)c(-c4ccc(N)cc4)c4nc(c(-c5ccc(N)cc5)c5ccc2[nH]5)C=C4)C=C3)cc1` [TAPP], the viability at 24 h in “MTT cytotoxicity assay” (HepG2, 50–200 μg/mL) is > 97%. As to `O=C(O)c1ccc(-c2c3nc(c(-c4ccc(C(=O)O)cc4)c4ccc([nH]4)c(-c4ccc(C(=O)O)cc4)c4nc(c(-c5ccc(C(=O)O)cc5)c5ccc2[nH]5)C=C4)C=C3)cc1` [TCPP], the viability at 24 h, 200 µg/mL in “MTT cytotoxicity assay” (HepG2, 200 μg/mL, read-out: cell viability (survival rate)) turned out to be 30.3 ± 3.45%. For the same compound, the viability at 24 h in the data set “MTT cytotoxicity assay” (HepG2, 50–100 μg/mL) is > 80%. For “iron (III) meso-tetra (4-carboxyphenyl) porphyrin chloride [Fe–TCPP]”, on α-amylase, the “IC50 α-amylase” value turned out to be 95.75 ± 0.62 µg/mL.

For the origin of these results see article PMC12467033, “Exploring the Inhibitory Potential of Six Porphyrin Compounds Against α-Amylase and α-Glucosidase Linked to Diabetes” (Biomolecules, 2025).
